# Measured values from US20240238316A1, “C[…]” (priority 2021, published 2024).
# Experiment: solvents tested for dissolving the acid and the cannabinoid
# Assay type: physicochemical
# Settings: compared with other solvents, including other alcohols
# Description: Various solvents are tested, including other alcohols.
compound,measurement,value
CC(O)CO (stereo not shown) [Propylene glycol],dissolution of the acid and the cannabinoid in the solvent,dissolve both the acid and the cannabinoid efficiently and without excessive heating
